Where a name gives a salt, the structure may show the parent alone.
Key:
Type in all cases: physicochemical
[1] = Quantum efficiency of fluorescence, measured versus a reference dye
Description: For all indodicarbocyanine dyes (I) (A1) - (A30) and (B1) - (B7) of the invention, there are determined the quantum efficiency of fluorescence in methanol and in aqueous phosphate buffered saline (Table 1, Fig. 3). The measurements are performed versus dyes of formula (I) (R1= -CH3, R2= R6= -SO3^-; R3= -(CH2)5COOH, R4= -C2H5, R5= -H) whose quantum efficiency of fluorescence in PBS is 0.27 (Mader O., K. Reider, H.-J. Egelhaaaf, R, Fischer, R. Brock, Structure Properties of Pentamethine Indocyanine Dyes: Identification of New Dyes for Life Science Applications. Bioconjugate Chem, 2004, vol. 15, pp. 70-78). In methanol, dyes (A10, A22, A25, A29, A30) have the upper-range of quantum efficiency of fluorescence (Φ ∼ 0.3), but in PBS, dyes (A10, A22, A25, A29, A30) have the maximal Φ -value.

[2] = Absorption and fluorescence maxima of the dyes
Source text: An insertion of methyl group at 5- and 7-positions of indolenyne cycle produces a bathochromic shift in the absorption and fluorescent spectra. As to the rest sulfur containing dyes, the spectral characteristics thereof appear to be in the same range (between about λmax 648 nm and λem 669 nm) (Fig. 1),

[3] = Molar extinction coefficient in methanol and PBS; set-up: ε·10^-5: unit not given here
Description: For all indodicarbocyanine dyes (I) (A1) - (A30) and (B1) - (B7) of the invention, there are determined the molar extinction coefficients in methanol and in aqueous phosphate buffered saline (PBS) (10 mM potassium phosphate buffer, sodium chloride concentration is 0.9%, pH 7.4). In methanol, indodicarbocyanine (A1, A8, A10-A12, A17, A23) has the upper-range of molar extinction coefficient (ε >[…]). In aqueous phosphate buffered saline (PBS), dyes (A10, A23, A30) have the maximal ε-value (Fig. 2).

[4] = Relative efficiency of fluorescence / absolute sensitivity of label, normalized to dye A30 in PBS; settings: for Sensitivity of record 635/ 670: excitation 635 nm, record 670 nm; for Sensitivity of record 655/ 690: excitation 655 nm, record 690 nm; for Sensitivity of record max/ max: excitation and record in absorption and fluorescence maxima, ε*Φ normalized to A30 in PBS
Source text: The data obtained were as follows: • on excitation and record in absorption and fluorescence maxima, the relative efficiency of fluorescence exceeds 0.80 for dyes (A10), (A22), (A23), (A25), and (A30) in methanol and for dyes (A22), (A25), and (A30) in PBS (Table 1, Fig. 4), whereas for dyes of formula (I) (R1 = -CH3, R2= R6= -SO3^-; R3= -(CH2)5COOH, R4= -C2H5; R5= -H) the values are 0.69 in methanol and 0.67 in PBS; • on excitation at wavelength 655 nm and record at 690 nm, the relative efficiency of fluorescence exceeds 0.25 for dyes (A25) and (A30) in methanol and is higher than 0.18 for dyes (A24) and (A30) in PBS (Table 1, Fig. 5), whereas for dyes of formula (I) (R1 = -CH3, R2 = R6= -SO3^-; R3= -(CH2)5COOH, R4= -C2H5; R5= -H) the values are 0.18 in methanol and 0.11 in PBS; • on excitation at wavelength 635 nm and record at 670 nm, the relative efficiency of fluorescence exceeds 0.50 for dyes (A1), (A11), (A23) in methanol and is higher than 0.45 for dyes (A22), (A25), and (A30) in PBS (Table 1, Fig. 6), whereas for dyes of formula (I) (R1= -CH3, R2= R6= -SO3^-; R3= -(CH2)5COOH, R4= -C2H5; R5= -H) the values are 0.44 in methanol and 0.38 in PBS.
Term sensitivity of fluorescent analysis is defined by the absolute sensitivity of label that may be represented as the product of molar extinction coefficient by quantum efficiency of fluorescence (ε*Φ). Thus, there are determined the absolute sensitivity of indodicarbocyanines (A1-A30, B1-B7) in appropriate absorption and fluorescence maxima in methanol and in aqueous phosphate buffered saline. The values are normalized to the maximal value obtained for dye (A30) in PBS (Table 1). In methanol, dyes (A10, A22, A23, A25, A30) have the upper-range of absolute sensitivity, but in PBS, dyes (A10, A22, A25, A29, A30) have the maximal values of sensitivity (Fig. 4).
To determine the most appropriate dyes for instrument setting, there are measured the relative efficiency of fluorescence of dyes at wavelength of excitation and record of the instrument (655 nm. / 690 nm). The maximal values appear to be specific to dyes (A25) and (A30) in methanol, and to dyes (A19, A22, A25, A29, A30) in PBS (Table 1, Fig. 5).
There are also measured the relative efficiency of fluorescence at wavelength of excitation and record of the instrument (635 nm / 670 nm). The maximal values appear to be specific to dyes (A1, A10, A11, A23) in methanol, and to dyes (A10, A22, A25, A29, A30) in PBS (Table 1, Fig. 6).

[5] = PBS (10 mM potassium phosphate buffer, 0.9% sodium chloride, pH 7.4)

Φ (quantum efficiency of fluorescence) ([1]; MeOH)	Φ (quantum efficiency of fluorescence) ([1]; PBS)	Sensitivity of record 635/ 670 ([4]; PBS)	Sensitivity of record 655/ 690 ([4]; PBS)	Sensitivity of record max/ max ([4]; PBS)	Compound	also measured
0.19					Cc1ccc2c(c1)C(C)(C)C(=CC=CC=CC1=[N+](CCCCS(=O)(=O)[O-])c3ccc(CCC(=O)O)cc3C1(C)C)N2CCCCS(=O)(=O)[O-].[Na+] [B4, N,N'-disulfobutyl-5-carboxyethyl-3,3,3',3',5'-pentamethylindodicarbocyanine, sodium salt]	
0.17					CC1(C)C(=CC=CC=CC2=[N+](CCCCS(=O)(=O)[O-])c3ccc(CCC(=O)O)cc3C2(C)C)N(CCCCS(=O)(=O)[O-])c2ccccc21.[Na+] [B5, N,N'-disulfobutyl-5-carboxyethyl-3,3,3',3'-tetramethylindodicarbocyanine, sodium salt]	molar extinction coefficient ([3]; solvent not stated): about 200,000
			maximal		Cc1ccc2c(c1)C(C)(C)C(=CC=CC=CC1=[N+](CCCCS(=O)(=O)[O-])c3ccc(C)cc3C1(C)CCCCC(=O)O)N2CCCCS(=O)(=O)[O-].[Na+] (stereo not shown) [A19, N,N'-di(4-sulfobutyl)-3-(4-carboxybutyl)-3,3',3',5,5'-pentamethylindodicarbocyanine, sodium salt]	
			higher than 0.18		CC1(C)C(=CC=CC=CC2=[N+](CCCCS(=O)(=O)[O-])c3ccc(S(=O)(=O)[O-])cc3C2(C)CCCCC(=O)O)N(CCCCS(=O)(=O)[O-])c2ccccc21.[Na+].[Na+] (stereo not shown) [A24, N,N'-di(4-sulfobutyl)-3-(4-carboxybutyl)-5-sulfo-3,3',3'-trimethylindodicarbocyanine, disodium salt]	

Continued, compound first:

Compound	Φ (quantum efficiency of fluorescence) ([1]; MeOH)	Φ (quantum efficiency of fluorescence) ([1]; PBS)	Sensitivity of record 635/ 670 ([4]; PBS)	Sensitivity of record 655/ 690 ([4]; PBS)	Sensitivity of record max/ max ([4]; PBS)	also measured
CCN1/C(=C/C=C/C=C/C2=[N+](CC)c3ccc(S(=O)(=O)[O-])cc3C2(C)C)C(C)(CCCCC(=O)O)c2ccccc21 (stereo not shown) [A7, N,N'-diethyl-3-(4-carboxybutyl)-5'-sulfo-3,3',3'-trimethylindodicarbocyanine]	0.23	0.14	0.207	0.049	0.353	λmax^abs ([2]; MeOH): 647 nm; λmax^em ([2]; MeOH): 660 nm; λmax^abs ([2]; PBS): 646 nm; λmax^em ([2]; PBS): 663 nm; ε·10^-5 ([3]; MeOH): 1.78±0.02; ε·10^-5 [3, 5]: 1.80±0.03; Sensitivity of record 635/ 670 ([4]; MeOH): 0.359; Sensitivity of record 655/ 690 ([4]; MeOH): 0.102; Sensitivity of record max/ max ([4]; MeOH): 0.514
CCN1C(=CC=CC=CC2=[N+](CCCCS(=O)(=O)[O-])c3ccccc3C2(C)CCCCC(=O)O)C(C)(C)c2ccccc21 (stereo not shown) [A1, 3-(4-carboxybutyl)-N-(4-sulfobutyl)-3,3',3'-trimethyl-N'-ethylindodicarbocyanine]	0.25	0.13	0.123	0.153	0.372	λmax^abs ([2]; MeOH): 644 nm; λmax^em ([2]; MeOH): 662 nm; λmax^abs ([2]; PBS): 643 nm; λmax^em ([2]; PBS): 657 nm; ε·10^-5 ([3]; MeOH): 2.47±0.02; ε·10^-5 [3, 5]: 2.06±0.02; Sensitivity of record 655/ 690 ([4]; MeOH): 0.025; Sensitivity of record max/ max ([4]; MeOH): 0.737
CCN1C(=CC=CC=CC2=[N+](CCCCS(=O)(=O)[O-])c3ccc(C)cc3C2(C)CCCCC(=O)O)C(C)(C)c2cc(C)ccc21 (stereo not shown) [A5, 3-(4-Carboxybutyl)-3,3',3',5,5'-pentamethyl-N-(4-sulfobutyl)-N'-ethylindodicarbocyanine]	0.16	0.09	0.136	0.096	0.238	λmax^abs ([2]; MeOH): 654 nm; λmax^em ([2]; MeOH): 674 nm; λmax^abs ([2]; PBS): 653 nm; λmax^em ([2]; PBS): 670 nm; ε·10^-5 ([3]; MeOH): 2.05±0.02; ε·10^-5 [3, 5]: 1.96±0.02; Sensitivity of record 635/ 670 ([4]; MeOH): 0.212; Sensitivity of record 655/ 690 ([4]; MeOH): 0.229; Sensitivity of record max/ max ([4]; MeOH): 0.391
Cc1ccc2c(c1)C(C)(CCCCC(=O)O)C(C=CC=CC=C1N(CCCCS(=O)(=O)[O-])c3ccccc3C1(C)C)=[N+]2CCCCS(=O)(=O)[O-].[Na+] (stereo not shown) [A17, N,N'-di(4-sulfobutyl)-3-(4-carboxybutyl)-3,3',3',5-tetramethylindodicarbocyanine, sodium salt]						molar extinction coefficient (ε) ([3]; in methanol): > 220000 M⁻¹ cm⁻¹
CC1(C)C(/C=C/C=C/C=C2/N(CCCCS(=O)(=O)O)c3ccccc3C2(C)CCCCC(=O)O)=[N+](CCCCS(=O)(=O)O)c2ccc(S(=O)(=O)[O-])cc21 (stereo not shown) [A23, N,N'-di(4-sulfobutyl)-3-(4-carboxybutyl)-5'-sulfo-3,3',3'-trimethylindodicarbocyanine, disodium salt]						molar extinction coefficient (ε) ([3]; in aqueous phosphate buffered saline (PBS)): maximal
CCN1C(=CC=CC=CC2=[N+](CC)c3ccc(S(=O)(=O)[O-])cc3C2(C)CCCCC(=O)O)C(C)(C)c2cc(S(=O)(=O)[O-])ccc21.[Na+] (stereo not shown) [A22, 5,5'-disulfo-N,N'-diethyl-3-(4-carboxybutyl)-3,3',3'-trimethylindodicarbocyanine, sodium salt]	~0.3	maximal		maximal		
CC[N+]1=C(/C=C/C=C/C=C2/N(CCCCS(=O)(=O)O)c3ccc(S(=O)(=O)[O-])cc3C2(C)CCCCC(=O)O)C(C)(C)c2cc(S(=O)(=O)O)ccc21 (stereo not shown) [A25, 5,5'-disulfo-3-(4-carboxybutyl)-N-(4-sulfobutyl)-3,3',3'-trimethyl-N'-ethylindodicarbocyanine, disodium salt]				maximal		
CC1(C)C(C=CC=CC=C2N(CCCCS(=O)(=O)O)c3ccccc3C2(C)CCCCC(=O)O)=[N+](CCCCS(=O)(=O)[O-])c2ccccc21 (stereo not shown) [A10, N,N'-di(4-sulfobutyl)-3-(4-carboxybutyl)-3,3',3'-trimethylindodicarbocyanine, sodium salt]	~0.3	maximal	maximal		maximal	Sensitivity of record 635/ 670 ([4]; MeOH): maximal
CCN1/C(=C/C=C/C=C/C2=[N+](CCCCS(=O)(=O)O)c3ccc(S(=O)(=O)O)cc3C2(C)C)C(C)(CCCCC(=O)O)c2cc(S(=O)(=O)[O-])ccc21 (stereo not shown) [A29, 5,5'-disulfo-3-(4-carboxybutyl)-N'-(4-sulfobutyl)-3,3';3'-trimethyl-N-ethylindodicarbocyanine, disodium salt]		maximal	maximal	maximal	maximal	
